Data: patent publication US8791132B2, “Compounds and methods for treatment of hypertension” (Medivation Technologies, Inc., priority 2011, dated 2014)
Like-named read-outs stand apart in the source and are kept apart here. Values belong to the molecule of their own block, whether it stands above or below them.

Columns and labels:
[1] = biological target: T1, human recombinant adrenergic α2A receptor (Homo sapiens, UniProt P08913); experiment: Radioligand binding, adrenergic α2A ([3H]MK-912); conditions: for Percentage inhibition of ligand binding, Adrenergic α2A / Percentage inhibition of ligand binding, Adrenergic α2A (0.1 μM): 0.1 µM
T1 construct: expressed in transfected cells; host or cells: insect Sf9 cells
T1 sequence (P08913 1-465): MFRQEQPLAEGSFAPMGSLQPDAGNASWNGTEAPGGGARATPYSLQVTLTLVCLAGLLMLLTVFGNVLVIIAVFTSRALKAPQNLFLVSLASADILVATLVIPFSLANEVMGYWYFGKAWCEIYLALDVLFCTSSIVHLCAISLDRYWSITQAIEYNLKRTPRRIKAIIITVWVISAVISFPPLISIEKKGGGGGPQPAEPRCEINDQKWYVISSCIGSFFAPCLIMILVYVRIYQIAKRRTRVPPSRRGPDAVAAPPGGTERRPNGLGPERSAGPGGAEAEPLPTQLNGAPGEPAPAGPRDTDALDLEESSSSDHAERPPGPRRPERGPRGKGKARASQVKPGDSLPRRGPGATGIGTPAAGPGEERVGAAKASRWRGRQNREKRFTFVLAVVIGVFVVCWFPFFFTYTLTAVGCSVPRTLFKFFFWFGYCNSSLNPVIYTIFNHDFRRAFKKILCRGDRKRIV
In short: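 Sf9 membranes, 1 nM [3H]MK-912, 60 min, 25 °C, Tris-HCl pH 7.4/MgCl2/EDTA buffer. NSB: 10 μM WB-4101. Filtration, counting; % inhibition of specific binding.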

[2] = biological target: T2, rat adrenergic α1B receptor (Rattus norvegicus, UniProt P15823); experiment: Radioligand binding, adrenergic α1B ([3H]Prazosin); conditions: for Percentage inhibition of ligand binding, Adrenergic α1B / Percentage inhibition of ligand binding, Adrenergic α1B (0.1 μM): 0.1 µM
T2 construct: rat adrenergic α1B receptor obtained from Wistar Rat liver; from tissue; host or cells: Wistar rat liver
T2 sequence (P15823 1-515): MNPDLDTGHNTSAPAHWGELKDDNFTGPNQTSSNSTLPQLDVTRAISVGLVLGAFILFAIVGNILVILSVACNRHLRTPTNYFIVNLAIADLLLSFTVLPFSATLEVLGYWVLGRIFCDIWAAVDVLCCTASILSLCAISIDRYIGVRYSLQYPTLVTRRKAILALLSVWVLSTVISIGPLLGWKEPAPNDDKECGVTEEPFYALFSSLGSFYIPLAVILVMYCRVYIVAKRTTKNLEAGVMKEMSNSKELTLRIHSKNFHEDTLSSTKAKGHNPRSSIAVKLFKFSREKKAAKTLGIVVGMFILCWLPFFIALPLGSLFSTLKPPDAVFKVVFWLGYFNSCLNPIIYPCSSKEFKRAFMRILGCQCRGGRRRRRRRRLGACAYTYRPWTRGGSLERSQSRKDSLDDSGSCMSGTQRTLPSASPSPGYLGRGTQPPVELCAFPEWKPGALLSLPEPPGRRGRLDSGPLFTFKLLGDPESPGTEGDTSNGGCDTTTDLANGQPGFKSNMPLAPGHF
In short: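 Specific binding, taken as total minus that remaining with 10 μM phentolamine, is measured after filtration and counting. Rat liver receptor preparation and 0.25 nM [3H]prazosin are incubated with compound in 50 mM Tris-HCl (pH 7.4, 0.5 mM EDTA) at 25° C for 60 min. Activity is reported as percent inhibition.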

[3] = biological target: T3, human recombinant adrenergic α2B receptor (Homo sapiens, UniProt P18089); experiment: Radioligand binding, adrenergic α2B ([3H]Rauwolscine); conditions: for Percentage inhibition of ligand binding, Adrenergic α2B (0.03 μM) / Percentage inhibition of ligand binding, Adrenergic α2B: 0.03 µM
T3 construct: expressed in transfected cells; host or cells: CHO-K1
T3 sequence (P18089 1-450): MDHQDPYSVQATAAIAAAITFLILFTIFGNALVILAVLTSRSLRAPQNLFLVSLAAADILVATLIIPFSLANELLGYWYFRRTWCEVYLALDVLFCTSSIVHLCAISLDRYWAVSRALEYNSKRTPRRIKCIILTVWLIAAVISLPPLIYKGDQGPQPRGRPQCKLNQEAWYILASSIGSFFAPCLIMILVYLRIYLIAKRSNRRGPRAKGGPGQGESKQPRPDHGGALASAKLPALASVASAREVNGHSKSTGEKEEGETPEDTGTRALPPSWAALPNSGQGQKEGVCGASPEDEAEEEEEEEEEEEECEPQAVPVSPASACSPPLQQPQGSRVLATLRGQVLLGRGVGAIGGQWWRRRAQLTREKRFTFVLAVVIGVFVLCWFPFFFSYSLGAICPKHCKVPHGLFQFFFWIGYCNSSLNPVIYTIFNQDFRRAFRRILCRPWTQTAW
In short: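 Assay used CHO-K1-expressed human α2B receptor in Tris-HCl pH 7.4 buffer with MgCl2, EDTA and BSA; 60 min incubation at 25 °C.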

[4] = compound at 0.1 μM, [3H]MK-912, repeat assays, each datapoint shown
[5] = compound at 0.1 μM, [3H]MK-912, repeat assays, each datapoint shown, read-out: Percentage inhibition of ligand binding, Adrenergic α2A
[6] = compound at 0.1 μM, [3H]Prazosin, repeat assays, each datapoint shown
[7] = compound at 0.1 μM, [3H]Prazosin, repeat assays, each datapoint shown, read-out: Percentage inhibition of ligand binding, Adrenergic α1B
[8] = compound at 0.03 μM, [3H]Rauwolscine, repeat assays, each datapoint shown, read-out: Percentage inhibition of ligand binding, Adrenergic α2B
[9] = read-out: Percentage inhibition of ligand binding, Adrenergic α2A (0.1 μM), compound at 0.1 μM, [3H]MK-912, repeat datapoints each shown
[10] = read-out: Percentage inhibition of ligand binding, Adrenergic α1B (0.1 μM), compound at 0.1 μM, [3H]Prazosin, repeat datapoints each shown
[11] = compound at 0.03 μM, [3H]Rauwolscine, repeat datapoints each shown
[12] = read-out: Percentage inhibition of ligand binding, Adrenergic α2B (0.03 μM), compound at 0.03 μM, [3H]Rauwolscine, repeat datapoints each shown
[13] = read-out: Percentage inhibition of ligand binding, Adrenergic α2B (0.1 μM), compound at 0.1 μM, [3H]Rauwolscine, repeat datapoints each shown
[14] = compound at 0.03 μM, [3H]Rauwolscine, repeat assays, each datapoint shown
[15] = 0.1 μM compound, read-out: Percentage inhibition of ligand binding, Adrenergic α2A
[16] = 0.1 μM compound, read-out: Percentage inhibition of ligand binding, Adrenergic α1B
[17] = 0.03 μM compound, read-out: Percentage inhibition of ligand binding, Adrenergic α2B
[18] = compound at 0.1 μM, [3H]MK-912, repeat datapoints each shown
[19] = compound at 0.1 μM, [3H]Prazosin, repeat datapoints each shown

Compound: Cc1ccc2c(c1)c1c(n2CC(O)c2ccncc2)CN(C)CC1 (single isomer, unassigned) [8b]
- Ki [1]: 2100 nM
- Percentage inhibition of ligand binding, Adrenergic α2A [1, 4]: 12%
- inhibition at 0.1 µM [1, 5]: 8%
- inhibition at 0.03 µM ([2]; compound at 0.03 μM, [3H]Prazosin, repeat assays, each datapoint shown, read-out: Percentage inhibition of ligand binding, Adrenergic α1B): 24%
- Percentage inhibition of ligand binding, Adrenergic α1B [2, 6]: 63%
- inhibition at 0.1 µM [2, 7]: 61%
- inhibition at 0.03 µM [3, 8]: 49%
- inhibition at 0.1 µM ([3]; compound at 0.1 μM, [3H]Rauwolscine, repeat assays, each datapoint shown, read-out: Percentage inhibition of ligand binding, Adrenergic α2B): 78%
- Ki ([3]; read-out: Ki α2B): 11.7 nM

Compound: Cc1ccc2c(c1)c1c(n2CC(c2ccncc2)N(C)C)CCN(C)C1 (single isomer, unassigned) [150a]
- inhibition at 0.1 µM [1, 9]: 16%
- inhibition at 0.1 µM [2, 10]: 16%
- Percentage inhibition of ligand binding, Adrenergic α2B (0.03 μM) [3, 11]: 96%
- Ki ([3]; read-out: Ki α2B): 1.57 nM
- inhibition at 0.03 µM [3, 12]: 88%
- inhibition at 0.1 µM [3, 13]: 100%

Compound: Cc1ccc2c(c1)c1c(n2CC(N)c2ccc(F)cc2)CCN(C)C1 (single isomer, unassigned) [II-11a, 2-(2,8-dimethyl-3,4-dihydro-1H-pyrido[4,3-b]indol-5(2H)-yl)-1-(4-fluorophenyl)ethanamine]
- Percentage inhibition of ligand binding, Adrenergic α2A ([1]; 0.1 μM compound): 22%
- Percentage inhibition of ligand binding, Adrenergic α1B ([2]; 0.1 μM compound): 9%
- Percentage inhibition of ligand binding, Adrenergic α2B ([3]; 0.03 μM compound): 53%

Compound: Cc1ccc2c(c1)c1c(n2CC(O)c2ccncc2)CN(C)CC1 (stereo not shown) [8a]
- Percentage inhibition of ligand binding, Adrenergic α2A [1, 4]: 15%
- Percentage inhibition of ligand binding, Adrenergic α1B [2, 6]: 39%
- Percentage inhibition of ligand binding, Adrenergic α2B [3, 14]: 22%

Compound: CN1CCc2c(c3cccnc3n2CC(O)c2ccncc2)C1 (stereo not shown) [II-78]
- inhibition at 0.1 µM [1, 15]: 1%
- inhibition at 0.1 µM [2, 16]: -11%
- inhibition at 0.03 µM [3, 17]: -9%

Compound: Cc1ccc2c(c1)c1c(n2CC(O)c2ccncc2)C(C)N2CCC1C2 (single isomer, unassigned) [38b]
- Percentage inhibition of ligand binding, Adrenergic α2A [1, 4]: −1%
- Percentage inhibition of ligand binding, Adrenergic α1B [2, 6]: 20%
- Percentage inhibition of ligand binding, Adrenergic α2B [3, 14]: 17%

Compound: OCc1ccc2c(c1)c1c(n2CC(O)c2ccncc2)CCNC1 (stereo not shown) [II-81, 2-(8-hydroxymethyl-1,2,3,4-tetrahydro-pyrido[4,3-b]indol-5-yl)-1-pyridin-4-yl-ethanol]
- inhibition at 0.1 µM [1, 15]: 15%
- inhibition at 0.1 µM [2, 16]: -1%
- inhibition at 0.03 µM [3, 17]: -9%

Compound: CN1CCc2c(c3ccccc3n2CC(C)(O)c2cccnc2)C1 (single isomer, unassigned) [173b]
- Percentage inhibition of ligand binding, Adrenergic α2A (0.1 μM) [1, 18]: −2%
- Percentage inhibition of ligand binding, Adrenergic α1B (0.1 μM) [2, 19]: 8%
- Percentage inhibition of ligand binding, Adrenergic α2B (0.03 μM) [3, 11]: 28%

Compound: Cc1ccc2c(c1)c1c(n2CC(O)c2ccncc2)CCN(CC(=O)O)C1 (stereo not shown) [II-65, [5-(2-hydroxy-2-pyridin-4-yl-ethyl)-8-methyl-1,3,4,5-tetrahydro-pyrido[4,3-b]indol-2-yl]-acetic acid]
- inhibition at 0.1 µM [1, 15]: 12%
- inhibition at 0.1 µM [2, 16]: 10%
- inhibition at 0.03 µM [3, 17]: 25%

Compound: Cc1ccc2c(c1)c1c(n2CC(N)c2ccncc2)CCN(C)CC1 (single isomer, unassigned) [154b, 2-(3,9-dimethyl-2,3,4,5-tetrahydroazepino[4,5-b]indol-6(1H)-yl)-1-(pyridin-4-yl)ethanamine]
- inhibition at 0.1 µM [1, 9]: 5%
- inhibition at 0.03 µM ([2]; read-out: Percentage inhibition of ligand binding, Adrenergic α1B (0.03 μM), compound at 0.03 μM, [3H]Prazosin, repeat datapoints each shown): 80%
- inhibition at 0.1 µM [2, 10]: 95%
- Ki ([3]; Ki α2B): 3.33 nM
- Percentage inhibition of ligand binding, Adrenergic α2B (0.03 μM) [3, 11]: 83%
- inhibition at 0.03 µM [3, 12]: 80%
- inhibition at 0.1 µM [3, 13]: 95%

Now from value to molecule:

- inhibition at 0.1 µM [1, 9]: 91%
- inhibition at 0.1 µM [2, 10]: -1%
- inhibition at 0.03 µM [3, 12]: 1%
Compound: Cc1ccc(CCn2c3c(c4c(Cl)ccc(Br)c42)CN(C)CC3)cn1 [II-252]

- inhibition at 0.1 µM [1, 5]: -7%
- inhibition at 0.1 µM [2, 7]: 12%
- inhibition at 0.03 µM [3, 8]: 17%
Compound: Cc1ccc2c(c1)c1c(n2CC(O)c2ccc(C(=O)O)cc2)CCN(C)C1 (stereo not shown) [compound 67, 4-[2-(2,8-dimethyl-1,2,3,4-tetrahydro-pyrido[4,3-b]indol-5-yl)-1-hydroxy-ethyl]-benzoic acid]

- Percentage inhibition of ligand binding, Adrenergic α2A (0.1 μM) [1, 18]: −6%
- Percentage inhibition of ligand binding, Adrenergic α1B (0.1 μM) [2, 19]: −2%
- Percentage inhibition of ligand binding, Adrenergic α2B (0.03 μM) [3, 11]: 11%
Compound: Cc1cnc2c(c1)c1c(n2CC(C)(O)c2ccc(C(F)(F)F)nc2)CCN(C)C1 (single isomer, unassigned) [II-108b]

- Percentage inhibition of ligand binding, Adrenergic α2A (0.1 μM) [1, 18]: 18%
- Percentage inhibition of ligand binding, Adrenergic α1B (0.1 μM) [2, 19]: 7%
- inhibition at 0.03 µM [3, 12]: 52%
Compound: Cc1cnc2c(c1)c1c(n2CCc2cnc(C)nc2)CCN2CCCC12 (single isomer, unassigned) [IV-93a]

- Percentage inhibition of ligand binding, Adrenergic α2A (0.1 μM) [1, 18]: 4%
- Percentage inhibition of ligand binding, Adrenergic α1B (0.1 μM) [2, 19]: 10%
- Percentage inhibition of ligand binding, Adrenergic α2B (0.03 μM) [3, 11]: 13%
Compound: CC1Cc2c(c3cc(Cl)ccc3n2CC(C)(O)c2cccnc2)CN1C (single isomer, unassigned) [II-147d, 1-(8-chloro-2,3-dimethyl-3,4-dihydro-1H-pyrido[4,3-b]indol-5(2H)-yl)-2-(pyridin-3-yl)propan-2-ol]

- inhibition at 0.1 µM [1, 9]: 9%
- inhibition at 0.1 µM [2, 10]: 11%
- inhibition at 0.03 µM [3, 12]: -2%
Compound: Cc1ccc2c(c1)c1c(n2CC(CCN)c2ccncc2)CCN(C)C1 (stereo not shown) [II-231, 4-(2,8-dimethyl-1,2,3,4-tetrahydro-pyrido[4,3-b]indol-5-yl)-3-pyridin-4-yl-butylamine]

- inhibition at 0.1 µM [1, 9]: 3%
- inhibition at 0.1 µM [2, 10]: 4%
- inhibition at 0.03 µM [3, 12]: 43%
Compound: Cc1cnc2c(c1)c1c(n2CC(O)c2ccc(C#N)cc2)CCNC1 (stereo not shown) [II-116]

- inhibition at 0.1 µM [1, 9]: 10%
- inhibition at 0.1 µM [2, 10]: 3%
- inhibition at 0.03 µM [3, 12]: 11%
Compound: Cc1ccc2c(c1)c1c(n2CC(C(=O)O)c2ccncc2)CCN(C)C1 (stereo not shown) [II-262, 3-(2,8-dimethyl-3,4-dihydro-1H-pyrido[4,3-b]indol-5(2H)-yl)-2-(pyridin-4-yl)propanoic acid]
